We go through 4 compounds from article PMC9415731, “Evaluation of PepT1 (SLC15A1) Substrate Characteristics of Therapeutic Cyclic Peptides” (Pharmaceutics, 2022).

Each structure is given as a SMILES string. Where two headings read alike, the source gives them in different places. Numbered stars: 1 amine (or outer) side, 2 acyl side, 3 side chain; on linkers, the order of the positions; unused ones are H or OH. Square brackets hold non-standard residues; d marks the D form. Side chains are listed from the residue outwards. Peptide text beside a SMILES is read from it. * marks the point of attachment. Ethylenediamine = C(CN[*:2])N[*:1]; Hyp = O=C(O)[C@@H]1C[C@@H](O)CN1; Phg = N[C@H](C(=O)O)c1ccccc1; CO = O=C([*:1])[*:2]; Bn = c1ccc(C*)cc1 Where only a bound is given, the exact number is not on record here.

For series [1], the target named is T1, hPepT1 (SLC15A1) (Homo sapiens, UniProt P46059).
T1 construct: host or cells: CHO-K1 (clones CHO-hPepT1-M5 and CHO-hPepT1-200)
T1 sequence (P46059 1-708): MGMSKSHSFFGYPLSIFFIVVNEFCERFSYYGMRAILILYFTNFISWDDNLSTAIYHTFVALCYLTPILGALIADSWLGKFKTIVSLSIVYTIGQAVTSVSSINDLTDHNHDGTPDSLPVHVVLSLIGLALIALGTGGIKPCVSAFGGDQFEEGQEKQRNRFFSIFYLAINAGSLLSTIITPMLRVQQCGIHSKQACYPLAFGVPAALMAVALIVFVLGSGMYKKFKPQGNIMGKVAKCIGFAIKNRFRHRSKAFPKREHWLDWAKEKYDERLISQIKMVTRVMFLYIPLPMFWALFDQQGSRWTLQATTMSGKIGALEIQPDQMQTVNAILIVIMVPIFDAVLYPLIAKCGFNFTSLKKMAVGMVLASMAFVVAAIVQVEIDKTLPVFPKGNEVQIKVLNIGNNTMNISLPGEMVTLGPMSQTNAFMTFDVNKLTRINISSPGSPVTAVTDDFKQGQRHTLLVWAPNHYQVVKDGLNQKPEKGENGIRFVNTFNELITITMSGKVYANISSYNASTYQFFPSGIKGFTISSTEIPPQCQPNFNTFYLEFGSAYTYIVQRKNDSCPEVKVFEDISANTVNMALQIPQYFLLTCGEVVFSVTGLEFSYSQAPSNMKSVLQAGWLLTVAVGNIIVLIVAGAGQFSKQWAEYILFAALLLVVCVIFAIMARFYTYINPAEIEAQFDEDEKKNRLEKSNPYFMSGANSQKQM
The series can be described thus: Inhibition of Gly-Sar uptake in hPepT1 overexpressing CHO-K1 clones (semi-high-throughput 96-well assay). In kind it is cell-based. On the procedure:
In a second step, inhibition of hPepT1 by losartan, one of the strongest inhibitors of this transporter, was tested in both clones. Inhibition experiments were conducted as previously described at a Gly-Sar concentration of 20 µM [13]. In brief, cells were seeded in 96-well plates 1 d before the assay at a concentration of 5 × 10^4 per well. On the day of the inhibition experiment, cells were washed once with MES buffer (100 µL/well) and subsequently incubated with 20 µM Gly-Sar and losartan (0.1–5000 µM), all prepared in MES buffer. After an incubation period of 10 min at 37 °C on a rotary shaker (450 rpm), transport was terminated by removing the solution and washing the cells with ice-cold MES buffer thrice while the plate was kept on ice. Afterwards, cells were lysed in the 96-well cell culture plate with aqueous NH4OH (10%, 50 µL/well), and sample preparation was performed as described previously. Inhibition in the clone CHO-hPepT1-M5 was also tested with Gly-Pro (0.1–5000 µM) as described for losartan.
The cyclic peptides were first evaluated for hPepT1 inhibition with the semi-high-throughput assay in 96-well plates established and validated earlier, but using CHO-hPepT1-M5 instead of Caco-2 cells. Cells were seeded 2 d before the assay at a concentration of 5 × 10^4/well, and the assay was conducted as published previously. Each concentration was tested in octuplet, and each experiment performed thrice.
(§1) Nonlinear regression curves were calculated with GraphPad Prism version 9.3.1 (GraphPad Software Inc., La Jolla, CA, USA) using the four-parameter fit (sigmoidal dose-response curves with variable slope) for inhibition experiments of a one-phase association nonlinear curve fit for the Gly-Sar uptake. […] A p-value < 0.05 was considered significant.

For series [2], the target named is T1, hPepT1 (SLC15A1). The series can be described thus: Uptake of cyclic peptides in CHO-hPepT1-M5 cells compared with parental CHO-K1 cells, with and without Gly-Pro. In kind it is cell-based. The conditions noted are these: for hPepT1 substrate characteristics (conclusion): uptake in CHO-hPepT1-M5 vs CHO-K1 cells, with and without Gly-Pro. On the procedure:
For investigating the possible hPepT1 substrate characteristics of the cyclic peptides, their uptake was measured in the CHO-hPepT1-M5 clone with and without inhibition by Gly-Pro and compared with the CHO-K1 parental clone.
For each sample, 5 × 10^5 cells were suspended in 1.5 mL low-binding reaction tubes and washed once in MES buffer. Subsequently, cells were incubated in 100 µL of the respective cyclic peptide solution in MES with or without 20 mM Gly-Pro at 37 °C for 10 min on a rotary shaker (450 rpm). Cells were then washed twice with 0.4 mL ice-cold MES buffer before further proceeding as described in Section 2.8. Each concentration was tested in triplicate, and the experiment was conducted at least thrice.
Cell lysis was performed with 50 µL of 10% aqueous ammonia, and the lysates acidified with 50 µL of 20% aqueous FA to ensure stability of the peptide therapeutics during sample processing. Sample preparation and UPLC–MS/MS measurements were performed as previously described for plasma.
as §1

For series [3] the following is noted: oral, Beagle dogs; ref Sauter et al., unpublished data; cited from earlier work.
The mark [4] stands for this setting: CHO-hPepT1-M5 cells, 20 µM Gly-Sar, inhibitor 0.1-5000 µM, MES buffer pH 6.0, 10 min, 37 °C, UPLC-MS/MS, mean ± S.E.M. of three independent experiments, each concentration in sextuplets, read-out: IC50 for inhibition of the Gly-Sar uptake.

Consider `CCCCc1nc(Cl)c(CO)n1Cc1ccc(-c2ccccc2-c2nn[nH]n2)cc1` [losartan], for which the “Inhibition of the Gly-Sar uptake, shape of inhibition curve” value in series [1] (CHO-hPepT1-200 cells, 20 µM Gly-Sar, losartan 0.1-5000 µM, MES buffer pH 6.0, 10 min, 37 °C, compared with CHO-hPepT1-M5) is given as “the inhibition curve was much flatter”. The IC50 in series [1] (setting [4]) amounted to 37 ± 4.8 µM.
As for `NCC(=O)N1CCC[C@H]1C(=O)O` [Gly-Pro] (H-Gly-Pro-OH), the IC50 in series [1] (setting [4]) was 196 ± 41 µM.
`C[C@@H](O)[C@@H]1NC(=O)[C@H](CCCCN)NC(=O)[C@@H](Cc2c[nH]c3ccccc23)NC(=O)[C@H](Cc2ccccc2)NC(=O)[C@@H](NC(=O)[C@H](N)Cc2ccccc2)CSSC[C@@H](C(=O)N[C@H](CO)[C@@H](C)O)NC1=O` [octreotide]: in series [1], the IC50 was 4200 ± 1600 µM. Besides, in series [2], the “hPepT1 substrate characteristics (conclusion)” value is “not transported by hPepT1”. Moreover, in series [3], the Bioavailability is on record as over 1%.
Take `NCCCC[C@@H]1NC(=O)[C@@H](Cc2c[nH]c3ccccc23)NC(=O)[C@H](c2ccccc2)NC(=O)[C@@H]2C[C@@H](OC(=O)NCCN)CN2C(=O)[C@H](Cc2ccccc2)NC(=O)[C@H](Cc2ccc(OCc3ccccc3)cc2)NC1=O` [pasireotide] (cyclo([Hyp]([CO-Ethylenediamine])[Phg][dW]KY(Bn)F)): in series [1], the IC50 was 530 ± 110 µM. In addition, the “Difference in uptake between cells without (CHO-K1) and with hPepT1 overexpression (CHO-hPepT1-M5)” value in series [2] (5 x 10^5 cells in suspension, MES buffer pH 6, 10 min, 37 °C, intracellular quantification by UPLC-MS/MS, three experiments in triplicate, two-way ANOVA with Bonferroni post hoc test) is “no obvious difference in the uptake”. In addition, the “hPepT1 substrate characteristics (conclusion)” value in series [2] was “not transported by hPepT1”. Also, the “Influence of the PepT1 inhibitor Gly-Pro on the uptake” value in series [2] (with or without 20 mM Gly-Pro, CHO-hPepT1-M5 and CHO-K1 cells, MES buffer pH 6, 10 min, 37 °C, UPLC-MS/MS, three experiments in triplicate) was “no significant influence on the uptake”. The Bioavailability in series [3] is over 1%.

The term IC50 denotes the concentration at which inhibition is half-maximal.
